According to patent US5506213A, “Adminstration of 2'-halo-2'-deoxy adenosine to treat inflammatory bowel disease” (priority 1994, dated 1996):

What was measured:
[1] = tested on: freshly isolated human monocytes; test: Dose- and time-dependence of CdA cytotoxicity toward monocytes; type: cell-based; details: 50 nM CdA (FIG. 3)
Procedure: FIG. 3 is a graph of the dose- and time-dependence of 2-chlorodeoxyadenosine (CdA) cytotoxicity toward human monocytes in vitro.
Freshly isolated human monocytes were cultured at a concentration of 10^5 cells/well in 96-well flat-bottom tissue culture plates. The cells were incubated in complete medium (Example 2) for about 12 hours following initial plating. The cells were then treated by the addition of various concentrations of CdA to form monocyte-containing compositions specific wells and the plates were incubated, as discussed previously.
The percentage of viable cells that were present in wells containing the treated monocytes was determined daily for six days.

[2] = tested on: antigen-induced arthritis; test: Antigen-induced arthritis in rabbits; type: in vivo; details: CdA 1 mg/kg, tepoxalin 25 mg/kg, naproxen 5 mg/kg
Procedure: Antigen-induced arthritis in rabbits is an animal model of rheumatoid arthritis. In this model, the rabbits are sensitized to an antigen such as ovalbumin or methylated bovine serum albumin in an adjuvant. Several weeks later, the same antigen is injected directly into the joints of the animal. […] Pettipher et al., Br. J. Exp. Path., 69:113-122 (1988).
Rabbits with antigen-induced arthritis were treated with CdA (1 mg/kg), tepoxalin (25 mg/kg) or naproxen (5 mg/kg).

[3] = tested on: intact human cells or cell extracts; details: cited from earlier work

Nc1nc(Cl)nc2c1ncn2[C@H]1C[C@H](O)[C@@H](CO)O1 [CdA, 2-chloro-9,1'-beta-D-2'-deoxyribosyladenine]
cell viability [1]: significant decrease in cell viability within two days | pathological examination of joints compared to untreated controls [2]: milder inflammatory response coupled with much less tissue damage | phosphorylation ([3]; T lymphocytes): phosphorylated efficiently | catabolism ([3]; intact human cells or cell extracts): not catabolized significantly
